# PubChem BioAssay AID2060883 (Molecular Pharmacology Branch, DTP, NCI, 2025)
# Test system: 843782-103-R-J1-PDC complex spheroid viability
# Experiment: Anticancer human tumor 843782-103-R-J1-PDC patient-derived lung adenocarcinoma cell line growth inhibition [RAS]
# Details: for viability, T/C: stronger effect = lower value
# In short: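 Tumour cells grown as complex spheroids with HUVEC endothelial cells and mesenchymal stem cells, treated with RAS pathway inhibitor combinations. Each agent spans half-log steps from near clinical Cmax, or 10 microM where Cmax is unknown.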
# 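Note: viability read after seven days of compound exposure.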
smiles,measurement,setting,value
CCc1c2c(nc3ccc(O)cc13)-c1cc3c(c(=O)n1C2)COC(=O)[C@]3(O)CC + C=CC(=O)N1CCN(c2nc(OCC3CCCN3C)nc3c(F)c(-c4nc(N)cc(C)c4C(F)(F)F)c(Cl)cc23)C(C)C1,IC50,"curve of first compound, second compound 0.00316 µM",1.67 nM
same,IC50,"curve of first compound, second compound 0.01 µM",1.52 nM
same,IC50,"curve of first compound, second compound 0.0316 µM",1.56 nM
same,IC50,"curve of first compound, second compound 0.1 µM",1.56 nM
same,IC50,"curve of first compound, second compound 0.316 µM",1.54 nM
same,IC50,"curve of first compound, second compound 1 µM",1.52 nM
same,"viability, T/C","second compound 0.00316 µM, first compound 0.000949 µM",80.4%
same,"viability, T/C","second compound 0.00316 µM, first compound 0.003 µM",18.2%
same,"viability, T/C","second compound 0.00316 µM, first compound 0.00949 µM",6.35%
same,"viability, T/C","second compound 0.00316 µM, first compound 0.03 µM",2.5%
same,"viability, T/C","second compound 0.00316 µM, first compound 0.0949 µM",1.18%
same,"viability, T/C","second compound 0.00316 µM, first compound 0.3 µM",0.74%
same,"viability, T/C","second compound 0.01 µM, first compound 0.000949 µM",72.8%
same,"viability, T/C","second compound 0.01 µM, first compound 0.003 µM",16.8%
same,"viability, T/C","second compound 0.01 µM, first compound 0.00949 µM",8.52%
same,"viability, T/C","second compound 0.01 µM, first compound 0.03 µM",3.04%
same,"viability, T/C","second compound 0.01 µM, first compound 0.0949 µM",0.93%
same,"viability, T/C","second compound 0.01 µM, first compound 0.3 µM",0.76%
same,"viability, T/C","second compound 0.0316 µM, first compound 0.000949 µM",72.6%
same,"viability, T/C","second compound 0.0316 µM, first compound 0.003 µM",19.5%
same,"viability, T/C","second compound 0.0316 µM, first compound 0.00949 µM",7.44%
same,"viability, T/C","second compound 0.0316 µM, first compound 0.03 µM",2.35%
same,"viability, T/C","second compound 0.0316 µM, first compound 0.0949 µM",1.24%
same,"viability, T/C","second compound 0.0316 µM, first compound 0.3 µM",0.8%
same,"viability, T/C","second compound 0.1 µM, first compound 0.000949 µM",73.6%
same,"viability, T/C","second compound 0.1 µM, first compound 0.003 µM",18.1%
same,"viability, T/C","second compound 0.1 µM, first compound 0.00949 µM",7.09%
same,"viability, T/C","second compound 0.1 µM, first compound 0.03 µM",1.96%
same,"viability, T/C","second compound 0.1 µM, first compound 0.0949 µM",1.46%
same,"viability, T/C","second compound 0.1 µM, first compound 0.3 µM",0.64%
same,"viability, T/C","second compound 0.316 µM, first compound 0.000949 µM",70.7%
same,"viability, T/C","second compound 0.316 µM, first compound 0.003 µM",21.1%
same,"viability, T/C","second compound 0.316 µM, first compound 0.00949 µM",7.83%
same,"viability, T/C","second compound 0.316 µM, first compound 0.03 µM",2.85%
same,"viability, T/C","second compound 0.316 µM, first compound 0.0949 µM",1.34%
same,"viability, T/C","second compound 0.316 µM, first compound 0.3 µM",0.99%
same,"viability, T/C","second compound 1 µM, first compound 0.000949 µM",67.7%
same,"viability, T/C","second compound 1 µM, first compound 0.003 µM",24.5%
same,"viability, T/C","second compound 1 µM, first compound 0.00949 µM",7.99%
same,"viability, T/C","second compound 1 µM, first compound 0.03 µM",3.23%
same,"viability, T/C","second compound 1 µM, first compound 0.0949 µM",1.57%
same,"viability, T/C","second compound 1 µM, first compound 0.3 µM",0.98%
CC(=O)OC12COC1CC(O)C1(C)C(=O)C(O)C3=C(C)C(OC(=O)C(O)C(NC(=O)OC(C)(C)C)c4ccccc4)CC(O)(C(OC(=O)c4ccccc4)C21)C3(C)C (stereo unspecified),"viability, T/C",compound 0.0316 µM,3.82% [middle of 4 runs]
same,"viability, T/C",compound 0.1 µM,4.87% [middle of 4 runs]
same,"viability, T/C",compound 0.316 µM,5.01% [middle of 4 runs]
same,"viability, T/C",compound 1 µM,4.69% [middle of 4 runs]
same,"viability, T/C",compound 3.16 µM,6.26% [middle of 4 runs]
same,"viability, T/C",compound 10 µM,8.18% [middle of 4 runs]
same,IC50,curve of compound,< 31.6 nM
CC(Nc1ccc2c(c1)OCCn1cc(N3C(=O)OCC3C(F)F)nc1-2)C(N)=O (stereo unspecified) + CCn1c(-c2cccnc2C(C)OC)c2c3cc(ccc31)N1CCOC(CC(NC(=O)C(C(C)C)N(C)C(=O)C3(F)CCN(C(=O)C#CC(C)(C)N(C)C)CC3)C(=O)N3CCCC(N3)C(=O)OCC(C)(C)C2)C1,IC50,"curve of first compound, second compound 0.000949 µM",35.2 nM
same,IC50,"curve of first compound, second compound 0.003 µM",< 31.6 nM
same,IC50,"curve of first compound, second compound 0.00949 µM",38.4 nM
same,IC50,"curve of first compound, second compound 0.03 µM",34.8 nM
same,IC50,"curve of first compound, second compound 0.0949 µM",42.1 nM
same,IC50,"curve of first compound, second compound 0.3 µM",< 31.6 nM
same,"viability, T/C","second compound 0.000949 µM, first compound 0.0316 µM",52.9%
same,"viability, T/C","second compound 0.000949 µM, first compound 0.1 µM",31.6%
same,"viability, T/C","second compound 0.000949 µM, first compound 0.316 µM",31.5%
same,"viability, T/C","second compound 0.000949 µM, first compound 1 µM",16.4%
same,"viability, T/C","second compound 0.000949 µM, first compound 3.16 µM",14.3%
same,"viability, T/C","second compound 0.000949 µM, first compound 10 µM",7.59%
same,"viability, T/C","second compound 0.003 µM, first compound 0.0316 µM",44.2%
same,"viability, T/C","second compound 0.003 µM, first compound 0.1 µM",36.5%
same,"viability, T/C","second compound 0.003 µM, first compound 0.316 µM",25.6%
same,"viability, T/C","second compound 0.003 µM, first compound 1 µM",25.1%
same,"viability, T/C","second compound 0.003 µM, first compound 3.16 µM",14.9%
same,"viability, T/C","second compound 0.003 µM, first compound 10 µM",9.07%
same,"viability, T/C","second compound 0.00949 µM, first compound 0.0316 µM",53%
same,"viability, T/C","second compound 0.00949 µM, first compound 0.1 µM",37.7%
same,"viability, T/C","second compound 0.00949 µM, first compound 0.316 µM",23.8%
same,"viability, T/C","second compound 0.00949 µM, first compound 1 µM",19.6%
same,"viability, T/C","second compound 0.00949 µM, first compound 3.16 µM",14.1%
same,"viability, T/C","second compound 0.00949 µM, first compound 10 µM",8.01%
same,"viability, T/C","second compound 0.03 µM, first compound 0.0316 µM",52%
same,"viability, T/C","second compound 0.03 µM, first compound 0.1 µM",34.8%
same,"viability, T/C","second compound 0.03 µM, first compound 0.316 µM",24.9%
same,"viability, T/C","second compound 0.03 µM, first compound 1 µM",18.9%
same,"viability, T/C","second compound 0.03 µM, first compound 3.16 µM",13.8%
same,"viability, T/C","second compound 0.03 µM, first compound 10 µM",7.4%
same,"viability, T/C","second compound 0.0949 µM, first compound 0.0316 µM",56%
same,"viability, T/C","second compound 0.0949 µM, first compound 0.1 µM",32.5%
same,"viability, T/C","second compound 0.0949 µM, first compound 0.316 µM",24.1%
same,"viability, T/C","second compound 0.0949 µM, first compound 1 µM",21.1%
same,"viability, T/C","second compound 0.0949 µM, first compound 3.16 µM",13.9%
same,"viability, T/C","second compound 0.0949 µM, first compound 10 µM",7.55%
same,"viability, T/C","second compound 0.3 µM, first compound 0.0316 µM",50.3%
same,"viability, T/C","second compound 0.3 µM, first compound 0.1 µM",35.7%
same,"viability, T/C","second compound 0.3 µM, first compound 0.316 µM",25.6%
same,"viability, T/C","second compound 0.3 µM, first compound 1 µM",19.4%
same,"viability, T/C","second compound 0.3 µM, first compound 3.16 µM",10.7%
same,"viability, T/C","second compound 0.3 µM, first compound 10 µM",6.72%
